Data: patent US9040481B2, “Methods for treating steatotic disease” (The General Hospital Corporation, priority 2010, dated 2015)
Where no end group is shown, it is not given here. FAM = 5-carboxyfluorescein (5-FAM), fluorescent label attached at the amino terminus

What was measured:
[1] = test system: hepatocytes isolated from ob/ob mice; format: cell-based, mouse; conditions: for specificity of intracellular transport: distribution versus pattern of mitotracker: Ob/Ob hepatocytes, 18 hours, 1 microM FAM peptide, 1 microM Mitotracker, 25 mM glucose
Description: GLP-1(28-36)amide (FIAWLVKGRamide (SEQ ID NO:1) and the GLP-1(28-37) Arg-34 glycine extended (FIAWLVRGRG (SEQ ID NO:4)) peptides were prepared by solid phase synthesis and purified by sequential HPLC to >98% single component homogeneity. Verification of the peptides was done by both amino acid composition analysis and by mass spectroscopy. Fluorescent-labeled GLP-1(28-36)amide was prepared with the green fluorescence compound, 5-carboxyfluorescein (5-FAM, fluorescein amidite) and added to hepatocytes isolated from the liver of an ob/ob mouse along with Mitotracker, a specific red fluorochrome mitochondrial marker from Molecular Probes (AnaSpec, Fremont Calif.). The mitotracker compound used requires oxidation to develop fluorescence emission and fluoresces only if cells are viable and actively respiring. The oxidized red fluorochrome stains mitochondria of live and poorly respiring cells (RedCMXRos #7512) and the reduced red fluorochrome stains only actively respiring cells (Red CM-H2XRos #7513).
Mitochondrial localization was evaluated as follows, Hepatocytes were isolated from ob/ob mice and diet-induced obese (DIO) mice and plated overnight on 4 well glass slides (NUNC, Inc., IL) in maintenance medium (12), Next day cells were treated with 10 microM PAM-labeled GLP-1 (28-36)amide peptide (FAM-FIAWLVKGRamide (SEQ ID NO:1)) and 50 nM MitoTracker Red CM-H2Ros for 5 minutes in no dye, no PBS, 5 mM Glucose DMEM medium. Cells were washed with the same medium and images were taken 15 minutes later using Nikon Diaphot 300 inverted microscope SPOT RT camera and SPOT 3.3.1 software (Diagnostic Instruments, Inc., MI).
Whether intracellular transport of FAM-GLP-1(28-36)amide is specific for […] was evaluated in hepatocytes isolated from Ob/Ob mice and treated for 18 hours with 1 microM Mitotracker Red CM-H2XRos and 1 microM of TAM labeled GLP-1 (28-36) peptide or irrelevant peptide controls: synapsin I-derived petide (FAM-LRRRISDANFamide (SEQ NO:13)), AnaSpec Cat #61756; IP3R-derived peptide (FAM-GRRESLTSFGamide (SEQ ID NO:14)), AnaSpec cat. #61731; or angiotensin I peptide (FAM-DRVYIHPFHL (SEQ ID NO:15)), AnaSpec cat. #61185, in 25 mM glucose maintenance medium. Irrelevant peptides were obtained from AnaSpec, Fremont, Calif. Celts were washed with 25 mM glucose Krebs-Ringer buffer. Images were taken using Nikon Diaphot 300 inverted microscope SPOT RT camera and SPOT 3.3.1 software (Diagnostic Instruments, Inc., MI).

[2] = test system: isolated mouse hepatocytes
[3] = mouse, in vivo
[4] = mouse, in vivo; remark: listed apart in the source

## FAM-FIAWLVKGRamide ({FAM}-FIAWLVKGR-NH2; UniProt P01275 119-127, looked up, fragment) [FAM-GLP-1(28-36)amide, GLP-1(28-36)amide labeled at the amino-terminus with 5-carboxyfluorescein (FAM)]
[1]
  specificity of intracellular transport: distribution versus pattern of mitotracker: appears to be specific for GLP-1(28-36)amide

## FAM-GLP-1: fluorescence-labeled GLP-1
[2]
  binding to the surface of isolated mouse hepatocytes: no binding

## FAM-glucagon: FAM-labeled control hormone known to have receptors on hepatocytes
[2]
  binding to the surface of isolated mouse hepatocytes: readily binds to the surface of hepatocytes

## FAM-DRVYIHPFHL ({FAM}-DRVYIHPFHL) [angiotensin I peptide, irrelevant peptide control, AnaSpec cat. #61185]
[1]
  specificity of intracellular transport: distribution versus pattern of mitotracker: do not distribute in hepatocytes with the pattern of distribution of mitotracker

## FAM-LRRRISDANFamide [synapsin I-derived petide]
[1]
  specificity of intracellular transport: distribution versus pattern of mitotracker: do not distribute in hepatocytes with the pattern of distribution of mitotracker

## FIAWLVKGR-NH2 [GLP-1(28-36)amide, FIAWLVKGRamide]
[3]
  activities of the mice: no observable change in the activities
[1]
  time to enter stressed hepatocytes: ≤ 15 min
GLP-1 receptor
  mechanism of transport into hepatocytes: occurs by GLP-1 receptor-independent mechanisms
[4]
  MCR of the peptide: 40 to 50 mL/min

## FAM-GRRESLTSFGamide ({FAM}-GRRESLTSFG-NH2) [IP3R-derived peptide, irrelevant peptide control, AnaSpec cat. #61731]
[1]
  specificity of intracellular transport: distribution versus pattern of mitotracker: do not distribute in hepatocytes with the pattern of distribution of mitotracker
